Paper PMC3901665, “Characterization of Glycolytic Enzymes - rAldolase and rEnolase of Leishmania donovani, Identified as Th1 Stimulatory Proteins, for Their Immunogenicity and Immunoprophylactic Efficacies against Experimental Visceral Leishmaniasis” (PLoS ONE, 2014)

Columns and labels:
Format in all cases: biochemical, Leishmania donovani
[1] = tested on: T1, rLdAld (L. donovani aldolase); assay: hydrazine assay at […] nm, Michaelis-Menten; settings: hydrazine sulfate as detection reagent; 0.1-7 mM substrate; pH and temperature not given
T1 construct: gene ALD; full-length ORF (PCR product 1125 bp), 6xHis tag, pET-28a, E. coli, purified on Ni-NTA

[2] = tested on: T2, rLdEno (L. donovani enolase); assay: spectrophotometric PEP formation at […] nm, Michaelis-Menten; settings: 20 mM Tris-HCl pH 7.5, 2 mM MgSO4, 75 mM KCl, 25°C; 0-10 mM 2PGA
T2 construct: gene ENO; full-length ORF (PCR product 1290 bp), N-terminal 6xHis, pET-28a, E. coli C41(DE3), Ni-NTA

[3] = tested on: T2, rLdEno (L. donovani enolase); assay: spectrophotometric at […] nm, Michaelis-Menten; settings: 20 mM Tris-HCl pH 7.5, 2 mM MgSO4, 75 mM KCl, 25°C; 0-7.5 mM PEP; reverse reaction

O=P(O)(O)OC[C@H]1OC(O)(COP(=O)(O)O)[C@@H](O)[C@@H]1O (stereo partly drawn) [D-Fru-1,6-P2]
Km [1]: 2060 µM

O=C(O)[C@@H](CO)OP(=O)(O)O [2-phosphoglycerate]
Km [2]: 1540 µM

C=C(OP(=O)(O)O)C(=O)O [Phosphoenol pyruvate]
Km [3]: 3370 µM
